Article PMC7217150, “Synthesis, Modification, and Biological Evaluation of a Library of Novel Water‐Soluble Thiopyridone‐Based Organometallic Complexes and Their Unexpected (Biological) Behavior” (Chemistry (Weinheim an Der Bergstrasse, Germany), 2020)
Read-outs that look alike come from different tables or passages of the source.

Legend:
CH1/PA‐1 [1] = test: MTT cytotoxicity assay, monolayer culture; type: cell-based, human; conditions: CH1/PA‐1, MTT assay, exposure time 96 h, means ± SDs
SW480 [2] = test: MTT cytotoxicity assay, monolayer culture; type: cell-based, human
A549 [3] = test: MTT cytotoxicity assay, monolayer culture; type: cell-based, human; conditions: exposure time 96 h, means ± SDs
[4] = tested on: human cancer cell lines CH1/PA‐1, SW480, A549
Experimental: Cytotoxicity of the compounds in monolayer cultures was determined by the colorimetric MTT assay (MTT=3‐(4,5‐dimethyl‐2‐thiazolyl)‐2,5‐diphenyl‐2H‐tetrazolium bromide). 1×10^3 CH1/PA‐1, 2×10^3 SW480 and 3×10^3 A549 cells were seeded in 100 μL supplemented MEM per well into 96‐well flat‐bottom microculture plates. […] After 96 h, the drug‐containing medium was replaced with 100 μL of RPMI 1640/MTT mixture [6 parts of RPMI 1640 medium (supplemented with 10 % heat‐inactivated fetal bovine serum and 4 mM L‐glutamine), 1 part of MTT solution in phosphate‐buffered saline (5 mg mL^−1)]. After incubation for 4 h, the mixture was replaced with 150 μL DMSO per well to dissolve the formazan product formed by viable cells. Optical densities at 550 nm (and at a reference wavelength of 690 nm) were measured with a microplate reader (ELx808, Bio‐Tek).

CH1/PA‐1 [5] = conditions: CH1/PA‐1 multicellular spheroids, 96 h drug exposure
Experimental: (§1) A549, CH1/PA‐1 and SW480 cells were grown in MEM supplemented with 10 % fetal calf serum (FCS; from Biowest), 1 mM sodium pyruvate, 4 mM L‐glutamine and 1 % v/v nonessential amino acids (from 100×solution) and L‐glutamine. HCT‐116 cells were maintained in McCoy's 5a medium supplemented with 10 % FCS and L‐glutamine. Adherent monolayer cultures were grown in 75 cm^2 flasks. For spheroid culture, A549, CH1/PA‐1 and HCT‐116 cells were harvested from culture flasks by trypsinization, resuspended in their respective supplemented medium and seeded in ultra‐low attachment round‐bottom 96‐well plates (Corning Costar) at a density of 500 viable cells per well. Plates were incubated for 96 h to allow spheroid formation prior to use for the tests. All cultures were incubated in a humidified incubator at 37 °C with 5 % CO2.
(§2) Cytotoxicity in multicellular spheroids was determined by the fluorimetric resazurin assay. […] After incubation for 96 h, 20 μL of a 440 μM resazurin sodium salt solution in PBS were added to each well, and the plates were incubated for further 16 h. Fluorescence was measured with a Synergy HT reader (BioTek) with an excitation wavelength of 530 nm and emission wavelength of 590 nm. For both assays, at least three independent experiments (or two in case of poor activity) were performed, each with triplicates per concentration level, and the 50 % inhibitory concentrations (IC50) relative to untreated controls were interpolated from concentration‐effect curves.

HCT‐116 = HCT‐116 multicellular spheroids, 96 h drug exposure
Experimental: as §1, §2

A549 [6] = conditions: A549 multicellular spheroids, 96 h drug exposure
Experimental: as §1, §2

[7] = pH 7.2
Experimental: Stock solutions containing the desired complex in DMSO (5 mM) were diluted with phosphate buffer (pH 7.2) to a final concentration of […] compound in 1 % DMSO/20 mM buffer and directly analyzed by four different isocratic UHPLC runs (Δ=5 %). The lipophilicity parameters logkw and lipophilicity indices φ0 were calculated according to literature.7, 37

CH1/PA‐1 [8] = test: Cell cycle distribution, flow cytometry with propidium iodide; type: cell-based, human; conditions: for Cell cycle distribution G1, % / Cell cycle distribution G2/M, % / Cell cycle distribution S, %: 24 h, mean ± SD; for Relative change in cell cycle distribution G1, % / Relative change in cell cycle distribution G2/M, % / Relative change in cell cycle distribution S, %: difference to untreated control
Summary of the method: (§3)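 CH1/PA-1 and SW480 cells were allowed to attach for 24 h, then exposed continuously to compounds for 24 h at 37 °C. Nuclei were stained overnight at 4 °C with propidium iodide (50 μg mL^−1) in Triton/citrate buffer. 5×10^3 cells were analysed by flow cytometry, with G1/S/G2/M fractions fitted by the Watson Pragmatic model.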

SW480 [9] = test: as above; type: cell-based, human; conditions: for Cell cycle distribution G1, % / Cell cycle distribution G2/M, % / Cell cycle distribution S, %: 24 h, mean ± SD; for Relative change in cell cycle distribution G1, % / Relative change in cell cycle distribution G2/M, % / Relative change in cell cycle distribution S, %: difference to untreated control
Summary of the method: as §3

## CC1=C2[O][Ir+]([Cl])[S]=C2C=CN1Cc1ccccc1.Cc1c(C)c(C)[c-](C)c1C [Compound 6 c, Chlorido[1‐benzyl‐2‐methyl‐3‐oxo‐κO‐pyridine‐4(1H)‐thionato‐κS](η^5‐1,2,3,4,5‐pentamethylcyclopentadienyl)iridium(III)]
CH1/PA‐1 [1]
  IC50: 570 ± 50 nM
SW480 [2]; SW480, MTT assay, exposure time 96 h, means ± SDs
  IC50: 540 ± 70 nM
SW480 [2]; SW480, as listed in Table 3
  IC50: 540 ± 70 nM
A549 [3]
  IC50: 1100 ± 200 nM
[4]
  cytotoxicity relative to 3 c and 4 c: up to 20 times
[4]; tested cancer cell lines
  IC50 values, in words: high nanomolar range
CH1/PA‐1 [5]
  IC50: 114000 ± 3000 nM
HCT‐116
  IC50: 78000 ± 2000 nM
A549 [6]
  IC50: 136000 ± 5000 nM
[7]
  φ0 (chromatographic lipophilicity index): 6.22
SW480 cells
  cellular concentration relative to 3 c: 11 times
  cellular concentration relative to 5 c: 2 times
SW480 cells; ICP‐MS, 2 h exposure, 50 μM
  Cellular accumulation: 1680±333 fg/cell
CH1/PA‐1 [8]; CH1/PA-1, 0.75 µM
  Cell cycle distribution G1, %: 30 ± 4%
  Cell cycle distribution G2/M, %: 32 ± 4%
  Cell cycle distribution S, %: 38 ± 3%
  Relative change in cell cycle distribution G1, %: -10%
  Relative change in cell cycle distribution G2/M, %: 8%
  Relative change in cell cycle distribution S, %: 2%
CH1/PA‐1 [8]; CH1/PA-1, 1.25 µM
  Cell cycle distribution G1, %: 30 ± 8%
  Cell cycle distribution G2/M, %: 33 ± 4%
  Cell cycle distribution S, %: 37 ± 6%
  Relative change in cell cycle distribution G1, %: -10%
  Relative change in cell cycle distribution G2/M, %: 9%
  Relative change in cell cycle distribution S, %: 1%
CH1/PA‐1 [8]; CH1/PA-1, 2.5 µM
  Cell cycle distribution G1, %: 27 ± 4%
  Cell cycle distribution G2/M, %: 34 ± 3%
  Cell cycle distribution S, %: 39 ± 4%
  Relative change in cell cycle distribution G1, %: -13%
  Relative change in cell cycle distribution G2/M, %: 10%
  Relative change in cell cycle distribution S, %: 3%
CH1/PA‐1 [8]; CH1/PA‐1 cells, 2.5 μM
  decrease in G1 phase: 13%
SW480 [9]; SW480, 0.75 µM
  Cell cycle distribution G1, %: 40 ± 5%
  Cell cycle distribution G2/M, %: 24 ± 5%
  Cell cycle distribution S, %: 36 ± 2%
  Relative change in cell cycle distribution G1, %: -8%
  Relative change in cell cycle distribution G2/M, %: 5%
  Relative change in cell cycle distribution S, %: 3%
SW480 [9]; SW480, 1.25 µM
  Cell cycle distribution G1, %: 39 ± 13%
  Cell cycle distribution G2/M, %: 22 ± 3%
  Cell cycle distribution S, %: 38 ± 8%
  Relative change in cell cycle distribution G1, %: -9%
  Relative change in cell cycle distribution G2/M, %: 3%
  Relative change in cell cycle distribution S, %: 5%
SW480 [9]; SW480, 2.5 µM
  Cell cycle distribution G1, %: 43 ± 2%
  Cell cycle distribution G2/M, %: 19 ± 3%
  Cell cycle distribution S, %: 38 ± 5%
  Relative change in cell cycle distribution G1, %: -5%
  Relative change in cell cycle distribution G2/M, %: 0%
  Relative change in cell cycle distribution S, %: 5%
SW480 [9]; SW480 cells, at applicable concentrations
  decrease in G1 phase: < 9%
